Target: T1, CDK2/Cyclin E (Homo sapiens, UniProt P24941)
T1 construct: The open reading frames of CDK2 and Cyclin E were isolated; made in house; host or cells: Sf21 (Spodoptera frugiperda) insect cells, baculovirus co-infection; substrate in E. coli BL21 (DE3) pLysS
Assay: in vitro kinase assay (Scintillation Proximity Assay), CDK2/Cyclin E, GST-Rb substrate
Format: biochemical
Conditions: in-vitro SPA kinase assay, 0.2 μM ATP, room temperature, 60 minutes; read-out: CDK2 inhibitory activity (CDK2 enzyme)
Description: The compounds were tested in an in vitro kinase assay in 96 well format using Scintillation Proximity Assay (SPA—obtained from Amersham) for measuring incorporation of [γ-33-P]-Adenosine Triphosphate into a test substrate (GST-Retinoblastoma protein; GST-Rb). In each well was placed the compound to be tested (diluted in DMSO and water to correct concentrations) and in control wells either roscovitine as an inhibitor control or DMSO as a […] control.
Approximately 0.2 μl of CDK2/Cyclin E partially-purified enzyme (amount dependent on enzyme activity) diluted in 25 μl incubation buffer was added to each well then 20 μl of GST-Rb/ATP/ATP33 mixture (containing 0.5 μg GST-Rb and 0.2 μM ATP and 0.14 μCi[γ-33-P]-Adenosine Triphosphate in incubation buffer), and the resulting mixture shaken gently, then incubated at room temperature for 60 minutes. […]
The plates were sealed with Topseal-S plate sealers, left for two hours then spun at 2500 rpm, 1124×g., for 5 minutes. The plates were read on a Topcount for 30 seconds per well. […]
The open reading frames of CDK2 and Cyclin E were isolated by reverse transcriptase-PCR using HeLa cell and activated T cell mRNA as a template and cloned into the insect expression vector pVL1393 (obtained from Invitrogen 1995 catalogue number: V1392-20). […]

CN1CCN(C(=O)c2ccc(Nc3nccc(-c4cnc5ccccn45)n3)cc2)CC1 [Example 2, [4-(4-Imidazo[1,2-a]pyridin-3-yl-pyrimidin-2-ylamino)-phenyl]-(4-methyl-piperazin-1-yl)-methanone]
IC50: 0.09 µM

Reference: US7745428B2, “Imidazo[1,2-A]pyridine having anti-cell-proliferation activity” (AstraZeneca AB, priority 2005, dated 2010)
